ChEMBL document CHEMBL5137068, “Discovery of Hexahydrofuro[3,2-b]furans as New Kinase-Selective and Orally Bioavailable JAK3 Inhibitors for the Treatment of Leukemia Harboring a JAK3 Activating Mutant” (J Med Chem, 2022)
The source made the active and inactive calls. The rule behind the calls is not given here.

Columns and labels:
U-937 [1] = test: Induction of cell cycle arrest in human U-937 cells assessed as accumulation at S phase at 33 nM measured after 24 hrs by propidium iodide staining based flow cytometric analysis (reference value: 15.35%); format: functional
U-937 [2] = test: Induction of cell cycle arrest in human U-937 cells assessed as downregulation of CDK2 at 0 to 300 nM measured after 24 hrs by western blot analysis; format: functional, cell-based; conditions: dose 0-300 nM
[3] = Cmax in 12 hr fasted SPF Sprague-Dawley rat at 5 mg/kg, iv upon 2 hrs fasting post-administration measured upto 24 hrs; format: ADME, organism-based; set-up: dose 5 mg/kg, time < 24 hrs, route iv; conditions: in vivo
[4] = molecular target: Tyrosine-protein kinase JAK2 (Homo sapiens, UniProt O60674); test: Inhibition of human JAK2 at 0.5 uM relative to control
[5] = molecular target: Cytoplasmic tyrosine-protein kinase BMX (Homo sapiens) (UniProt P51813); test: Inhibition of BMX (unknown origin) at 0.5 uM relative to control
Sequence of Cytoplasmic tyrosine-protein kinase BMX (Homo sapiens) (P51813 whole entry): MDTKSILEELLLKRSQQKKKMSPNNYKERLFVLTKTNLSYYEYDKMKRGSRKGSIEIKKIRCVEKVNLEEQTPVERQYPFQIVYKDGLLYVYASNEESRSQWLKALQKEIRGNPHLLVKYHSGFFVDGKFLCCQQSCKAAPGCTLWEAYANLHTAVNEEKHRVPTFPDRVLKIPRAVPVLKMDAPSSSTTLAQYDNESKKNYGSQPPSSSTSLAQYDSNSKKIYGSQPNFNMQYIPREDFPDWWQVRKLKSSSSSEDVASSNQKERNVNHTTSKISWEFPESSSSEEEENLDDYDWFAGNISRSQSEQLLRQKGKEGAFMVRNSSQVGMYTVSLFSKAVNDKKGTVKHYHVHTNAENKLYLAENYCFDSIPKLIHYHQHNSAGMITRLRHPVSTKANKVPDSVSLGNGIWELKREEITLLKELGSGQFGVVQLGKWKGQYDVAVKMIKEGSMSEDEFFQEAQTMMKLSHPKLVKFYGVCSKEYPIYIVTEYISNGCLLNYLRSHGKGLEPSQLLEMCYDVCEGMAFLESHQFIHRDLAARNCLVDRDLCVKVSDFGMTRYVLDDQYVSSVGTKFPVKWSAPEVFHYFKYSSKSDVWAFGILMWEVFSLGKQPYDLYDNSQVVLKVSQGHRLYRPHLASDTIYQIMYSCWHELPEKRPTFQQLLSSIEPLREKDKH

Sequence of Tyrosine-protein kinase JAK2 (O60674 whole entry): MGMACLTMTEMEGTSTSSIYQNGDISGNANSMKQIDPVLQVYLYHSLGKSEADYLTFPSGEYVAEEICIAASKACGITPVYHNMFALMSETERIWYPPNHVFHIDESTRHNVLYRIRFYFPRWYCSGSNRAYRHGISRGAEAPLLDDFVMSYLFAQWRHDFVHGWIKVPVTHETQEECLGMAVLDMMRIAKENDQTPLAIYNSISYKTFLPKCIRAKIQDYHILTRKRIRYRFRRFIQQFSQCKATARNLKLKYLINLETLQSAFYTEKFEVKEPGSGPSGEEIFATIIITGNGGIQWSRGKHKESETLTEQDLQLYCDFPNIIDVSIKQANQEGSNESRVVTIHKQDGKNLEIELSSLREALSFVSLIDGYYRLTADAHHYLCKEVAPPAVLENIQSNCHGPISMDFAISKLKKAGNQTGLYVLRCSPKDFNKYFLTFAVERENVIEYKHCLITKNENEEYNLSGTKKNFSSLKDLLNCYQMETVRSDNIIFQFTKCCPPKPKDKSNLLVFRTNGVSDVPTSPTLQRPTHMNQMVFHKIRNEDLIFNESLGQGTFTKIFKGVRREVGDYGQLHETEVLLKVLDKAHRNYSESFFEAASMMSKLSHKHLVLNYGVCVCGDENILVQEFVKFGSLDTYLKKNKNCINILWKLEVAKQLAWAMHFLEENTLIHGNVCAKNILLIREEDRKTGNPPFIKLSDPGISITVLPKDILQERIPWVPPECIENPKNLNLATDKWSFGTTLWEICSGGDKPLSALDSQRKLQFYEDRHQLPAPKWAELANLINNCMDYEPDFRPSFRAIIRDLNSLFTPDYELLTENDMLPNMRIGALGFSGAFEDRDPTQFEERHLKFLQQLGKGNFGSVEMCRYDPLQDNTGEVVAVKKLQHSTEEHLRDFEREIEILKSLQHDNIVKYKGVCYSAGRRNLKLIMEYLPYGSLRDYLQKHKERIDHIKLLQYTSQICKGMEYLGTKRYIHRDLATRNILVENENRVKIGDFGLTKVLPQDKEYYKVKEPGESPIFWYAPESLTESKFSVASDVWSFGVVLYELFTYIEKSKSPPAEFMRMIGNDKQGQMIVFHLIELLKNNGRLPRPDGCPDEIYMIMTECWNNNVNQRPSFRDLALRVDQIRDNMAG

Cmax [3]: 911 ng/mL
inhibition [4]: 98%
inhibition [5]: 71%
SMILES: C=CC(=O)Nc1cc(Nc2ncc(Cl)c(O[C@@H]3CO[C@H]4[C@@H]3OC[C@H]4OC)n2)ccc1N(C)CCN(C)C
Activity (U-937 [1]): 13.62%
Activity (U-937 [2]): Active
